Measurements reported in ChEMBL document CHEMBL1697781, “Assessment of the health effects of chemicals in humans: II. Construction of an adverse effects database for QSAR modeling” (Curr Drug Discov Technol, 2004).

Legend:
Settings in all cases: human; call rule not given here
[1] = tested on: Hepatotoxicity; test: FDA HLAED, lactate dehydrogenase (LDH) increase
[2] = tested on: Hepatotoxicity; test: FDA HLAED, serum glutamic pyruvic transaminase (SGPT) increase
[3] = tested on: Hepatotoxicity; test: FDA HLAED, gamma-glutamyl transferase (GGT) increase
[4] = tested on: Hepatotoxicity; test: FDA HLAED, alkaline phosphatase increase
[5] = tested on: Hepatotoxicity; test: FDA HLAED, liver enzyme composite activity
[6] = tested on: Hepatotoxicity; test: FDA HLAED, serum glutamic oxaloacetic transaminase (SGOT) increase
Wherever GGT Increase - Index Value is given: reference of the scale not given here.
Wherever LDH Increase - Index Value is given: reference of the scale not given here.

Row | Compound | LDH Increase - Activity Score [1] | LDH Increase - Index Value [1] | LDH Increase - Number of Reports [1] | SGPT Increase - Activity Score [2] | SGPT Increase - Index Value [2] | SGPT Increase - Number of Reports [2] | GGT Increase - Activity Score [3] | GGT Increase - Index Value [3] | GGT Increase - Number of Reports [3] | Alkaline Phosphatase Increase - Activity Score [4] | Alkaline Phosphatase Increase - Index Value [4] | Alkaline Phosphatase Increase - Number of Reports [4] | Composite Activity - Active [5] | Composite Activity - Marginal [5] | Composite Activity - Score [5] | SGOT Increase - Activity Score [6] | SGOT Increase - Index Value [6] | SGOT Increase - Number of Reports [6] | further results
1 | CCCC(=O)Nc1ccc(OCC(O)CNC(C)C)c(C(C)=O)c1 (stereo unspecified) [ACEBUTOLOL] | Marginally Active | 3.3 | >= 4 | Marginally Active | 3.3 | >= 4 | Inactive | 0 | < 4 | Marginally Active | 3.9 | >= 4 | 0 | 3 | Inactive | Inactive | 2.6 | >= 4 | –
2 | CC(=O)Nc1ccc(O)cc1 [ACETAMINOPHEN] | Marginally Active | No Shipping Units | >= 4 | Active | No Shipping Units | >= 4 | Marginally Active | No Shipping Units | >= 4 | Marginally Active | No Shipping Units | >= 4 | 2 | 3 | Active | Active | No Shipping Units | >= 4 | –
3 | CC(=O)NO [ACETOHYDROXAMIC ACID] | Inactive | 0 | < 4 | Inactive | 0 | < 4 | Inactive | 0 | < 4 | Inactive | 0 | < 4 | 0 | 0 | Inactive | Inactive | 0 | < 4 | –
4 | Nc1nc2c(ncn2COCCO)c(=O)[nH]1 [ACYCLOVIR] | Inactive | 0.1 | < 4 | Inactive | 0.1 | < 4 | Inactive | 0 | < 4 | Inactive | 0.9 | >= 4 | 0 | 0 | Inactive | Inactive | 0.9 | >= 4 | –
5 | Nc1ncnc2c1ncn2[C@@H]1O[C@H](CO)[C@@H](O)[C@H]1O [ADENOSINE] | Inactive | 0 | < 4 | Inactive | 0 | < 4 | Inactive | 0 | < 4 | Inactive | 0 | < 4 | 0 | 0 | Inactive | Inactive | 0 | < 4 | –
6 | CC(C)(C)NCC(O)c1ccc(O)c(CO)c1 (stereo unspecified) [ALBUTEROL] | Inactive | 0 | < 4 | Inactive | 0 | < 4 | Inactive | 0 | < 4 | Inactive | 0 | < 4 | – | – | – | Inactive | 0.1 | < 4 | Composite Activity - Active ([5]; Liver): 0; Composite Activity - Marginal ([5]; Liver): 0; Composite Activity - Score ([5]; Liver): Inactive
7 | CCC(=O)OCC(=O)[C@@]1(OC(=O)CC)[C@H](C)C[C@H]2[C@H]3[C@H]([C@@H](O)C[C@@]21C)[C@@]1(C)C=CC(=O)C=C1C[C@H]3Cl [ALCLOMETASONE DIPROPIONATE] | Inactive | 0 | < 4 | Inactive | 0 | < 4 | Inactive | 0 | < 4 | Inactive | 0 | < 4 | 0 | 0 | Inactive | Inactive | 0 | < 4 | –
8 | C[C@@H]1C[C@H]2[C@H]3[C@H]([C@@H](O)C[C@]2(C)[C@@]1(O)C(=O)CO)[C@@]1(C)C=CC(=O)C=C1C[C@H]3Cl [ALCLOMETASONE] | Inactive | 0 | < 4 | Inactive | 0 | < 4 | Inactive | 0 | < 4 | Inactive | 0 | < 4 | 0 | 0 | Inactive | Inactive | 0 | < 4 | –
9 | NCCCC(O)(P(=O)(O)O)P(=O)(O)O [ALENDRONIC ACID] | Inactive | 1.5 | >= 4 | Inactive | 1.4 | >= 4 | Inactive | 0.8 | >= 4 | Inactive | 2.5 | >= 4 | – | – | – | Inactive | 1.4 | >= 4 | Composite Activity - Active ([5]; Liver): 0; Composite Activity - Marginal ([5]; Liver): 0; Composite Activity - Score ([5]; Liver): Inactive
10 | Cc1nnc2n1-c1ccc(Cl)cc1C(c1ccccc1)=NC2 [ALPRAZOLAM] | Inactive | 0.5 | >= 4 | Inactive | 0.9 | >= 4 | Inactive | 0 | < 4 | Inactive | 0.4 | >= 4 | 0 | 0 | Inactive | Inactive | 0.7 | >= 4 | –
11 | CCCCC[C@H](O)/C=C/[C@H]1[C@H](O)CC(=O)[C@@H]1CCCCCCC(=O)O [ALPROSTADIL] | Inactive | 0 | < 4 | Inactive | 0 | < 4 | Inactive | 0 | < 4 | Inactive | 0 | < 4 | 0 | 0 | Inactive | Inactive | 0 | < 4 | –
12 | CN(C)c1nc(N(C)C)nc(N(C)C)n1 [ALTRETAMINE] | Inactive | 0 | < 4 | Inactive | 0 | < 4 | Inactive | 0 | < 4 | Inactive | 18.3 | < 4 | 0 | 0 | Inactive | Inactive | 0 | < 4 | –
